# Laboratory results as given in US8039014B2, “3′-alkoxyspirocyclopentyl-substituted tetramic and tetronic acids” (Bayer Cropscience AG, priority 2005, dated 2011).
# Tested on: cereal
# Experiment: Herbicidal post-emergence action with safener: container trials with cereal outdoors ('bird cage'), mefenpyr 1 day prior to herbicide application
# Assay type: in vivo
# Details: without safener
# Method: Seeds of monocotyledonous and dicotyledonous weed and crop plants are placed into sandy loam in wood fiber pots or in plastic pots, covered with soil and cultivated in a greenhouse, during the vegetation period also outdoors outside of the greenhouse, under good growth conditions. 2 to 3 weeks after sowing, the test plants are treated at the one- to three-leaf stage. The test compounds, formulated as wettable powders (WP) or liquid (EC), are, in various dosages at a water application rate of 300 l/ha (converted), with wetting agent (0.2 to 0.3%) added, sprayed onto the plants and the surface of the soil. […]
# If it is additionally to be tested as to whether safeners can improve the plant compatibility of test substances in the case of crop plants, the following options are used for applying the safener: • seeds of the crop plants are, before sowing, dressed with the safener substance (the amount of safener stated in percent, based on the weight of the seed) • before the application of the test substances, the crop plants are sprayed with the safener at a certain application rate per hectare (usually 1 day before the application of the test substances) • the safener is applied together with the test substance as a tank mix (the amount of safener is stated in g/ha or as a ratio, based on the herbicide). […]
compound,measurement,setting,value
CCc1cc(Cl)cc(OC)c1C1=C(O)C2(CCC(OC)C2)NC1=O (centres unmarked) [Example I-1-a-4],Summer wheat after 10 d observed (%),25 g ai/ha,25%
same,Summer wheat after 10 d observed (%),50 g ai/ha,40%
